Several values for one entry are separate records, joined by “and”; a condition that tells them apart may be missing. Equal values may be shown once.
Key:
S. aureus 29213 = assay: checkerboard combination study (FIC index); assay type: cell-based, Staphylococcus aureus; design: key: FIC index = average of FICA+FICB (MIC combo/MIC alone)
Protocol: (§1) The combination experiments were performed and the results were interpreted using the checkerboard method as described in Eliopoulous, G. M., and R. C. Moellering, 1996, Antimicrobial combinations, p. 330-396, In V. Lorian (ed.), Antibiotics in laboratory medicine, 4th ed., The Williams & Wilkins Co., Baltimore, Md., in 96-well microtiter plates. Compound A was serially diluted along the x-axis of the test plate to a final volume of 50 μl, and compound B was serially diluted in a separate transfer plate. Dilutions in both plates were made in CAMHB (cation-adjusted Mueller Hinton broth) for Staphylococci and in CAMHB+5% sheep blood for Streptococci. Aliquots (50 μl) of Compound B were transferred to the test plate along the y-axis thereby achieving a checkerboard matrix of antimicrobial combinations (100 μl total volume) as in FIG. 4. The first column and last row (shaded in FIG. 4) contained only compound B or compound A, respectively. Plates were then inoculated with 10 μl of the test microorganism and MICs were determined according to NCCLS guidelines (see National Committee for Clinical Laboratory Standards, 2000, Methods for Dilution Antimicrobial Susceptibility Tests for Bacteria That Grow Aerobically—Fifth Edition, Approved Standard M7-A5, NCCLS, Wayne, Pa., USA.)
(§2) Data analysis was performed as follows and according to Eliopoulous, G. M., and R. C. Moellering, 1996, Antimicrobial combinations, p. 330-396, In V. Lorian (ed.), Antibiotics in laboratory medicine, 4th ed., The Williams & Wilkins Co., Baltimore, Md. First individual FIC values for each combination in a plate were calculated: FIC(Fractional Inhibitory Concentration)=FICA+FICB • FICA=MICA+B/MICA i.e. the MIC of combination of compound A+compound B divided by the MIC of compound A alone. • FICB=MICB+A/MICB i.e. the MIC of combination of compound B+compound A divided by the MIC of compound B alone.
(§3) FIC values were calculated only for combinations that enabled determination of a true MIC (e.g. not > or <=values). FIC indexes were then calculated as the average of individual FIC values for each combination plate.

S. aureus 43300 = assay: checkerboard combination study (FIC index); assay type: cell-based, Staphylococcus aureus; design: key: FIC index = average of FICA+FICB (MIC combo/MIC alone); details: S. aureus 43300 (MRSA)
Protocol: as §1, §2, §3

S. aureus SA_29213 = assay: checkerboard combination, clinical bacterial isolates (FIC); assay type: cell-based; details: S. aureus SA_29213 (MSSA)
Protocol: as §1, §2, §3

S. pyogenes SPY_20015 = assay: as above; assay type: cell-based; details: compound G with Gatifloxacin
Protocol: as §1, §2, §3

E. faecalis A6221420 = assay: Combination Time-kill kinetics; assay type: cell-based; details: alone or with Meropenem 4 × MIC (16 ug/ml)
Protocol: (§4) As used herein, “synergy” refers to the in vitro effect of administration of a combination of an antibacterial agent such as a Fab I inhibiter, and antiinfective agent such that (1) the fractional inhibitory concentration (FIC) is less than or equal to 0.5 in an FIC assay described herein; or (2) there is at least a 100-fold (2 log10) increase in killing at 24 hours for the combination as compared with the bioactive agent alone in a time kill curve assay as described herein. An FIC of ≦0.5 is evidence of synergy. An additive response has an FIC value of >0.5 and less than or equal to 1, while an indifferent response has an FIC value of >1 and ≦2. An additive effect may still indicate that the combination of bioactive agent and cationic peptide are therapeutically useful.

S. pneumoniae 22257 = assay: Combination Time-kill kinetics; assay type: cell-based; details: alone or with Azithromycin 4 × MIC (0.12 ug/ml) or Cefuroxime 4 × MIC (8 ug/ml)
Protocol: as §4

S. pneumoniae 22425 = assay: Combination Time-kill kinetics; assay type: cell-based; details: alone or with Gatifloxacin 4 × MIC (2 ug/ml)
Protocol: as §4

[1] = test system: major pathogenic species tested; assay: Checkerboard combination studies of compound G and commercial antibiotics (FIG. 7); assay type: cell-based; details: all major pathogenic species tested
Protocol: Checkerboard experiments were performed and analyzed according to standard procedures as outlined below.

[2] = test system: S. pneumoniae 22425, a penicillin and macrolide resistant clinical isolate; assay: Combination time-kill studies; assay type: cell-based; details: compound alone at both 0.03 μg/ml and 1 μg/ml; S. pneumoniae 22425; FIG. 8
Protocol: Combination time-kill studies were performed as follows. Bacterial inocula were prepared as for MIC determination according to CLSI guidelines. Log phase cells (˜10^6 CFU/ml) were inoculated into 24 well plates and incubated with the indicated concentrations of compound G and commercial antibiotics for 24 hours at 35° C. At indicated time points samples were removed for determination of viable CFU counts. Results are plotted as log CFU/ml vs. time.

## Cc1c(CN(C)C(=O)/C=C/c2cnc3c(c2)CCC(=O)N3)oc2ccccc12 [Compound G, (E)-N-methyl-N-(3-methylbenzofuran-2-ylmethyl)-3-(7-oxo-5,6,7,8-tetrahydro-1,8-naphthyridin-3-yl)acrylamide]
S. aureus 29213; with Cefuroxime
  FIC Index: 0.8
S. aureus 29213; with Cloxacillin
  FIC Index: 2
S. aureus 29213; with Erythromycin
  FIC Index: 2
S. aureus 29213; with Gentamcin
  FIC Index: 0.3
S. aureus 29213; with Levofloxacin
  FIC Index: 1
S. aureus 29213; with Linezolid
  FIC Index: 0.5
S. aureus 29213; with Nafcillin
  FIC Index: 0.8
S. aureus 29213; with Rifampicin
  FIC Index: 0.8
S. aureus 29213; with Tetracycline
  FIC Index: 2
S. aureus 29213; with Vancomycin
  FIC Index: 1
S. aureus 43300; with Cefuroxime
  FIC Index: 0.5
S. aureus 43300; with Cloxacillin
  FIC Index: 0.75
S. aureus 43300; with Gentamcin
  FIC Index: 0.4
S. aureus 43300; with Levofloxacin
  FIC Index: 2
S. aureus 43300; with Linezolid
  FIC Index: 0.5
S. aureus 43300; with Nafcillin
  FIC Index: 0.7
S. aureus 43300; with Rifampicin
  FIC Index: 0.75
S. aureus 43300; with Tetracycline
  FIC Index: 1
S. aureus 43300; with Vancomycin
  FIC Index: 0.75
S. aureus SA_29213; compound G with Azithromycin
  FIC: 0.6
S. aureus SA_29213; compound G with Ceftriaxone
  FIC: <2
S. aureus SA_29213; compound G with Cefuroxime
  FIC: <2
S. aureus SA_29213; compound G with Meropenem
  FIC: 1
S. aureus SA_29213; compound G with Penicillin
  FIC: 0.7
S. pyogenes SPY_20015
  FIC: <2
E. faecalis A6221420; Compound G 0.03 ug/ml
  logCFU/ml at Time (hr): 0: 5.10 logCFU/ml
  logCFU/ml at Time (hr): 2: 6.03 logCFU/ml
  logCFU/ml at Time (hr): 4: 6.42 logCFU/ml
  logCFU/ml at Time (hr): 8: 9.88 logCFU/ml
  logCFU/ml at Time (hr): 24: 9.91 logCFU/ml
  ΔlogCFU/ml (24-0 hr): 4.81 logCFU/ml
E. faecalis A6221420; Compound G 1 ug/ml
  logCFU/ml at Time (hr): 0: 5.12 logCFU/ml
  logCFU/ml at Time (hr): 2: 5.93 logCFU/ml
  logCFU/ml at Time (hr): 4: 6.53 logCFU/ml
  logCFU/ml at Time (hr): 8: 9.76 logCFU/ml
  logCFU/ml at Time (hr): 24: 9.91 logCFU/ml
  ΔlogCFU/ml (24-0 hr): 4.79 logCFU/ml
S. pneumoniae 22257; Compound G 0.03 ug/ml
  logCFU/ml at Time (hr): 0: 6.41 logCFU/ml and 6.20 logCFU/ml
  logCFU/ml at Time (hr): 3: 8.31 logCFU/ml and 8.15 logCFU/ml
  logCFU/ml at Time (hr): 6: 9.23 logCFU/ml and 9.35 logCFU/ml
  logCFU/ml at Time (hr): 8: 9.32 logCFU/ml
  logCFU/ml at Time (hr): 24: 9.68 logCFU/ml and 9.65 logCFU/ml
  ΔlogCFU/ml (24-0 hr): 3.26 logCFU/ml and 3.45 logCFU/ml
S. pneumoniae 22257; Compound G 1 ug/ml
  logCFU/ml at Time (hr): 0: 6.43 logCFU/ml and 6.30 logCFU/ml
  logCFU/ml at Time (hr): 3: 8.30 logCFU/ml and 8.17 logCFU/ml
  logCFU/ml at Time (hr): 6: 9.33 logCFU/ml and 9.20 logCFU/ml
  logCFU/ml at Time (hr): 8: 9.47 logCFU/ml and 9.41 logCFU/ml
  logCFU/ml at Time (hr): 24: 9.68 logCFU/ml and 9.71 logCFU/ml
  ΔlogCFU/ml (24-0 hr): 3.25 logCFU/ml and 3.40 logCFU/ml
S. pneumoniae 22425; Compound G 0.03 ug/ml
  logCFU/ml at Time (hr): 0: 5.20 logCFU/ml
  logCFU/ml at Time (hr): 2: 5.63 logCFU/ml
  logCFU/ml at Time (hr): 6: 7.25 logCFU/ml
  logCFU/ml at Time (hr): 24: 7.61 logCFU/ml
  ΔlogCFU/ml (24-0 hr): 2.41 logCFU/ml
S. pneumoniae 22425; Compound G 1 ug/ml
  logCFU/ml at Time (hr): 0: 5.12 logCFU/ml
  logCFU/ml at Time (hr): 2: 5.61 logCFU/ml
  logCFU/ml at Time (hr): 6: 7.18 logCFU/ml
  logCFU/ml at Time (hr): 24: 7.58 logCFU/ml
  ΔlogCFU/ml (24-0 hr): 2.45 logCFU/ml
[1]
  antagonism in compound G combinations: did not show antagonism
[2]
  activity against S. pneumoniae (time-kill): no activity
